# Results: patent publication US7491825B2, “Basic non-peptide bradykinin antagonists and pharmaceutical compositions therefrom” (Menarini Ricerche S.p.A., priority 2002, dated 2009)
# Structures can show the parent of a compound that is named as a salt.
# Target: T1, human B2 receptor (Homo sapiens, UniProt P30411)
# T1 construct: human B2 receptor expressed in human fibroblasts W138; endogenous in cells; host or cells: human fibroblasts W138 (WI-38)
# T1 sequence (P30411 1-391): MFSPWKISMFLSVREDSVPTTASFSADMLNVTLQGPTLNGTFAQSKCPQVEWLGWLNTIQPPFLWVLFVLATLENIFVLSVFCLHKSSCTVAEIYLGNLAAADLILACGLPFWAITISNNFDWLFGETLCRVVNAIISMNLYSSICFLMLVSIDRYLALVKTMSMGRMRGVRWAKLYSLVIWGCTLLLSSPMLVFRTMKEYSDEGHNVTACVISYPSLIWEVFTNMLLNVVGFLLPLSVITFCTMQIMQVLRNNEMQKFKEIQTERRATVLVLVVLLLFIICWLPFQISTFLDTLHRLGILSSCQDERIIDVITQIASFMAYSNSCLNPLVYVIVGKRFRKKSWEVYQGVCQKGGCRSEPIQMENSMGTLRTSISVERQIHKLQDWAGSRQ
# Test: binding to the human B2 receptor expressed in human fibroblasts W138
# Settings: not given
# Excerpt: In the following the binding values are reported expressed as pKi.
row,Ki [nM],Compound
1,0.398,"Cc1cc(C)c2cccc(OCc3c(Cl)ccc(S(=O)(=O)NC4(C(=O)N5CCC(C[N+](C)(C)CCCCC[N+](C)(C)C)CC5)CCCC4)c3Cl)c2n1 [Example 86, {5-[(1-{1-[2,4-Dichloro-3-(2,4-dimethyl-quinolin-8-yloxymethyl)-benzensulfonylamino]-cyclopentanecarbonyl}-piperidin-4-ylmethyl)-dimethyl-ammonium]-pentyl}-trimethyl-ammonium tris trifluoroacetate]"
2,0.501,"Cc1cc(C)c2cccc(OCc3c(Cl)ccc(S(=O)(=O)NC4(C(=O)N5CCN(C(=N)NCCCCCCN)CC5)CCCC4)c3Cl)c2n1 [Example 95, N-(6-Amino-hexyl)-4-{1-[2,4-dichloro-3-(2,4-dimethyl-quinolin-8-yloxymethyl)-benzenesulfonylamino]-cyclopentanecarbonyl}-piperazine-1-carboxamidine bis trifluoroacetate]"

# Same assay, conditions: human B2 receptor expressed in human fibroblasts W138
row,Compound,pKi
1,"Cc1cc(C)c2cccc(OCc3c(Cl)ccc(S(=O)(=O)NC4(C(=O)N5CCN(C(=O)C[C@H](CCCNC(=NC6CCCCC6)NC6CCCCC6)NC(=NC6CCCCC6)NC6CCCCC6)CC5)CCCC4)c3Cl)c2n1.O=C(O)C(F)(F)F.O=C(O)C(F)(F)F.O=C(O)C(F)(F)F [Example 80, N-(1-{4-[3-(S),6-Bis-(N′,N″-dicyclohexyl-guanidino)-hexaoyl]-piperazine-1-carbonyl}-cyclopentyl)-2,4-dichloro-3-(2,4-dimethyl-quinolin-8-yloxymethyl)-benzensulfonamide tris trifluoroacetate]",9.2
2,"Cc1cc(C)c2cccc(OCc3c(Cl)ccc(S(=O)(=O)NC4(C(=O)N5CCN(C(=O)CCC[N+](C)(C)C)CC5)CCCC4)c3Cl)c2n1 [Example 83, N-{1-[4-(4-Trimethylammonium-butanoyl)-piperazine-1-carbonyl]-cyclopentyl}-2,4-dichloro-3-(2,4-dimethyl-quinolin-8-yloxymethyl)-benzenesulfonamide bis trifluoroacetate]",9.4
3,"Cc1cc(C)c2cccc(OCc3c(Cl)ccc(S(=O)(=O)NC4(C(=O)N5CCN(C(=O)[C@H](CCCCN)[N+](C)(C)C)CC5)CCCC4)c3Cl)c2n1 [Example 90, N-[1-[4-(2-(S)-Trimethylammonium-6-amino-hexanoyl)-piperazin-1-yl]-cyclopentyl]-2,4-dichloro-3-(2,4-dimethyl-quinolin-8-yloxymethyl)-benzenesulfonamide tris trifluoroacetate]",9.9
4,"Cc1cc(C)c2cccc(OCc3c(Cl)ccc(S(=O)(=O)NC4(C(=O)N5CCN(C(=O)CCCCC[N+](C)(C)C)CC5)CCCC4)c3Cl)c2n1 [Example 91, N-{1-[4-(6-Trimethylammonium-hexanoyl)-piperazine-1-carbonyl]-cyclopentyl}-2,4-dichloro-3-(2,4-dimethyl-quinolin-8-yloxymethyl)-benzenesulfonamide bis trifluoroacetate]",9.3
5,"Cc1cc(C)c2cccc(OCc3c(Cl)ccc(S(=O)(=O)NC4(C(=O)N5CCN(C(=O)C[C@@H](N)CCC[N+](C)(C)C)CC5)CCCC4)c3Cl)c2n1.Cc1cc(C)c2cccc(OCc3c(Cl)ccc(S(=O)(=O)NC4(C(=O)N5CCN(C(=O)C[C@@H](N)CCC[N+](C)(C)C)CC5)CCCC4)c3Cl)c2n1.O=C([O-])C(F)(F)F.O=C([O-])C(F)(F)F [Example 107, [4-(S)-Amino-6-(4-{1-[2,4-dichloro-3-(2,4-dimethyl-quinolin-8-yloxymethyl)-benzenesulfonylamino]-cyclopentanecarbonyl}-piperazin-1-yl)-6-oxohexyl]-trimethylammonium bis trifluoroacetate]",9.7
6,"N-[1-[4-(2-(S)-Dimethylamino-6-dimethylamino-hexanoyl)-piperazin-1-yl]-cyclopentyl]-2,4-dichloro-3-(2,4-dimethyl-quinolin-8-yloxymethyl)-benzenesulfonamide tris trifluoroacetate [Example 85]",9.3
7,"N-[1-[4-(2-(S)-Trimethylammonium-6-trimethylammonium-hexanoyl)-piperazin-1-yl]-cyclopentyl]-2,4-dichloro-3-(2,4-dimethyl-quinolin-8-yloxymethyl)-benzenesulfonamide tris trifluoroacetate [Example 88]",9.7

# Same assay, conditions: human B2 receptor expressed in human fibroblasts W138; read-out: pKi (converted)
row,Ki [nM],Compound
1,0.631,"Cc1cc(C)c2cccc(OCc3c(Cl)ccc(S(=O)(=O)NC4(C(=O)N5CCN(C(=O)[C@@H](N)CC6CCNCC6)CC5)CCCC4)c3Cl)c2n1 [Example 81, N-{1-[4-(2-(S)Amino-3-piperidin-4-yl-propionyl)-piperazine-1-carbonyl]-cyclopentyl}-2,4-dichloro-3-(2,4-dimethyl-quinolin-8-yloxymethyl)-benzenesulfonamide tris trifluoroacetate]"
2,0.631,"Cc1cc(C)c2cccc(OCc3c(Cl)ccc(S(=O)(=O)NC4(C(=O)N5CCN(C(=O)C[N+](C)(C)C)CC5)CCCC4)c3Cl)c2n1 [Example 82, N-{1-[4-(2-Trimethylammonium-acetyl)-piperazine-1-carbonyl]-cyclopentyl}-2,4-dichloro-3-(2,4-dimethyl-quinolin-8-yloxymethyl)-benzenesulfonamide bis trifluoroacetate]"
3,0.631,"Cc1cc(C)c2cccc(OCc3c(Cl)ccc(S(=O)(=O)NC4(C(=O)N5CCN(C(=O)C[C@@H](O)C[N+](C)(C)C)CC5)CCCC4)c3Cl)c2n1 [Example 84, N-{1-[4-(3(R)-Hydroxy-4-trimethylammonium-butanoyl)-piperazine-1-carbonyl]-cyclopentyl}-2,4-dichloro-3-(2,4-dimethyl-quinolin-8-yloxymethyl)-benzenesulfonamide bis trifluoroacetate]"
4,0.794,"Cc1cc(C)c2cccc(OCc3c(Cl)ccc(S(=O)(=O)NC4(C(=O)N5CCN(C(=N)NCCNCCCN)CC5)CCCC4)c3Cl)c2n1 [Example 96, N-[2-(3-Amino-propylamino)-ethyl]-4-{1-[2,4-dichloro-3-(2,4-dimethyl-quinolin-8-yloxymethyl)-benzenesulfonylamino]-cyclopentanecarbonyl}-piperazine-1-carboxamidine bis trifluoroacetate]"
5,0.631,"Cc1cc(C)c2cccc(OCc3c(Cl)ccc(S(=O)(=O)NC4(C(=O)N5CCN(C[C@H](N)CCCCN)CC5)CCCC4)c3Cl)c2n1 [Example 98, 2,4-Dichloro-N-{1-[4-(2(R),6-diamino-hexyl)-piperazine-1-carbonyl]-cyclopentyl}-3-(2,4-dimethyl-quinolin-8-yloxymethyl)-benzenesulfonamide tetra trifluoroacetate]"
6,0.398,"Cc1cc(C)c2cccc(OCc3c(Cl)ccc(S(=O)(=O)NC4(C(=O)N5CCN(CCN6CCNCC6)CC5)CCCC4)c3Cl)c2n1 [Example 100, 2,4-Dichloro-3-(2,4-dimethyl-quinolin-8-yloxymethyl)-N-{1-[4-(2-piperazin-1-yl-ethyl)-piperazine-1-carbonyl]-cyclopentyl}-benzenesulfonamide tetra trifluoroacetate]"
7,0.398,"CNCCCCCNCC1CCN(C(=O)C2(NS(=O)(=O)c3ccc(Cl)c(COc4cccc5c(C)cc(C)nc45)c3Cl)CCCC2)CC1 [Example 106, 2,4-Dichloro-3-(2,4-dimethyl-quinolin-8-yloxymethyl)-N-(1-{4-[(5-methylamino-pentylamino)-methyl]-piperidine-1-carbonyl}-cyclopentyl)-benzenesulfonamide tris trifluoroacetate]"
